System: rats subjected to regional myocardial ischaemia and reperfusion
Experiment: Regional myocardial ischaemia and reperfusion, artesunate and dihydroartemisinin
Format: in vivo, Wistar rats
Protocol: Rats were anaesthetised with thiopentone sodium (Intraval® 120 mg/kg i.p.). Anaesthesia was maintained by supplementary injections of thiopentone sodium as required. The trachea was cannulated and the animals were ventilated with a Harvard ventilator (inspiratory oxygen concentration: 30%; 70 strokes/min, tidal volume: 8-10 ml/kg). Body temperature was maintained at 37±1° C. with the aid of a rectal probe thermometer attached to a homeothermic blanket unit (Harvard Apparatus Ltd., Edenbridge, Kent. U.K.). […] The right jugular vein was then cannulated for the administration of drugs and saline. A para-sternal thoracotomy was then performed, using an Electrosurgery device to cauterize the intercostals arteries before cutting through three ribs. The chest was retracted and pericardium dissected from the heart. The left anterior descending (LAD) coronary artery was isolated and a snare occluder was placed around the LAD. The retractor was then removed and the animal was allowed to stabilise for 15 min.
The occluder was tightened at time 0. After 25 min of LAD-occlusion, the occluder was released to allow reperfusion of the previously ischemic myocardium (2 h). Haemodynamic parameters were continuously monitored. Baseline readings were taken prior to treatment, and, myocardial ischaemia reperfusion (IR) injury. The pressure rate index (PRI), a relative indicator of myocardial oxygen consumption was calculated as a product of the MAP (mmHg) and HR (beats/minute-bpm) and expressed in mm Hg bpm×10^−3.
At the end of the 2 h reperfusion period, the LAD was re-occluded and 1 ml of Evans Blue dye (2% w/v) was injected into the animal, via the jugular vein. The Evans Blue dye stains the tissue it can circulate through, therefore the non-perfused vascular (occluded) tissue remains un-coloured. Each animal was killed with an over-dose of anaesthetic, the heart excised, and excess dye washed off. […] The ischaemic and non-ischaemic tissue was weighed, and the AAR expressed as a percentage of the left ventricle. The tissue from the AAR was cut into small pieces and incubated with p-nitroblue tetrazolium (NBT, 0.5 mg/ml) for 30 min at 37° C. NBT is a reducing agent that reacts with dehydrogenases present in viable (non-infarcted) tissue to produce a dark blue formazan. Infarcted tissue (non-viable) will not have dehydrogenase activity and will therefore fail to stain. The stained tissue was separated from the infarcted tissue, weighed, and the infarct size expressed as a percentage of the AAR.
Sham-operated rats were subjected to surgical procedure without myocardial ischaemia and reperfusion.

[1] = bolus 0.1 mg/kg upon reperfusion, P>0.05 vs Control

C[C@@H]1CC[C@H]2[C@@H](C)C(O)O[C@H]3O[C@@]4(C)CC[C@@H]1[C@]32OO4 (stereo partly drawn) [dihydroartemisinin, (3R,5aS,6R,8aS,9R,12S,12aR)-decahydro-3,6,9-trimethyl-3,12-epoxy-12H-pyrano[4,3-j]-1,2-benzodioxepin-10-ol]
infarct size (percentage of the AAR) (0.1 mg/kg i.v. bolus upon reperfusion, from 59.8±3.2, P<0.05): 46.5±1.3%
Infarct size reduction (0.1 mg/kg i.v. upon reperfusion, vs control): 40%
area at risk (0.1 mg/kg, compared to vehicle treated rats): no significant effect
fall in mean arterial blood pressure caused by myocardial ischaemia and reperfusion [1]: did not attenuate
heart rate [1]: did not have a significant effect
